Values after ≈ are worked out from the molar mass of the structure shown. Values joined by “and” are separate entries in the source; they are usually repeats but may differ in a detail not shown here. Identical values can stand only once. Like-named read-outs stand apart in the source and are kept apart here.
What was measured:
[1] = tested on: Fusobacterium necrophorum ATCC 25286; experiment: MIC by agar dilution method (Wilkins-Chalgren Agar); format: cell-based
Procedure: (§1) In this example, microbiological studies were initiated with Virginiamycin and other antibiotics so as to determine their potency in controlling liver abscesses. As Fusobacterium necrophorum has been associated with bovine liver abscesses in cattle, it was determined that microbiological studies involving this bacterium would be undertaken with representative examples of antibiotics including Virginiamycin.
(§2) The MIC's for Fusobacterium necrophorum was done by the agar dilution method. Two-fold serial dilutions of each compound was incorporated into Wilkins-Chalgren Agar plates. Each Fusobacterium necrophorum was propagated in Peptone-Yeast-Glucose broth and inoculated onto the plates with a multipoint inoculating device. The plates were incubated at 37°C in an atmosphere of 10% H₂, 5% CO₂ and 85% N₂, for 40 hours.

[2] = tested on: Fusobacterium necrophorum ATCC 27852; experiment: as above; format: cell-based
Procedure: as §1, §2

[3] = tested on: Fusobacterium necrophorum; experiment: MIC of Virginiamycin and ionophores alone and combined at fixed ratios, two-fold serial dilution of a stock solution; format: cell-based; settings: for MIC Alone: antibiotic alone; for MIC: Fusobacterium necrophorum, read-out: MIC Alone
Procedure: In this example, microbiological studies were initiated with combinations of antibiotics from the Virginiamycin family of antibiotics and ionophore family of antibiotics so as to determine their potency in controlling liver abscesses. As Fusobacterium necrophorum has been associated with bovine liver abscess in cattle, it was determined that microbiological studies involving this bacterium would be undertaken. Since the liver abscess etiology is poorly defined, it is difficult to precisely extrapolate these studies to animal disease. […]
Virginiamycin was combined with an antibiotic from the ionophore family in a ratio expected in medicated feeds, eg. Salinomycin at 20 g/Ton and Virginamycin at 15 g/Ton have a ratio of 1.3:1. For the microbilogical studies, a stock solution was made up to contain Salinomycin and Virginiamycin in the same ratio of 1.3:1. The stock solution was serially diluted two fold. The dilutions were incubated with F. necr. The end point was the lowest concentrations antibiotics which inhibited the growth of F. necr., or MIC for minimal inhibitory concentration, eg. the MIC of Salinomycin was 5 µg/ml while that of Virginiamycin was 1 µg/ml.

[4] = tested on: Fusobacterium necrophorum Colorado Strain; experiment: MIC by agar dilution method (Wilkins-Chalgren Agar); format: cell-based
Procedure: as §1, §2

[5] = tested on: liver abscess; experiment: Incidence of liver abscess at slaughter in cattle fed a ration supplemented with Virginiamycin; format: in vivo; settings: for No. of Animals With Liver Abscess: ad libitum, approximately 120 days, Total Animals 197 (control 26 of 199); for No. of Animals Without Liver Abscess: Total Animals 197
Procedure: A cattle ration was prepared using the following formula: […]
The ration was supplemented with varying proportions of Virginiamycin and fed, ad libitum, to approximately 200 cattle weighing between 650 lbs. and 850 lbs. The cattle were processed according to standard procedures for the facility, individually weighed and identified. The treatments were continued until the cattle reached an approximate weight of 1100 lbs. (approximately 120 days).
Virginiamycin was added to the ration in the following amounts: Table 2
At slaughter, livers were identified with the individual animal number and scored for liver abscess after examination in the manner required by USDA. Livers were palpated and suspicious area were excised and examined for the presence of liver abscesses.

[6] = tested on: Fusobacterium necrophorum (the two ATCC strains); experiment: MIC of factors M and S of virginiamycin, one experiment, two ATCC strains taken together; format: cell-based; settings: geometric mean for the two ATCC strains
Procedure: as §2
In the one experiment in which factors M and S of virginiamycin were tested, the MICs were 0.35 (geometric mean for the two ATCC strains) and greater than 32 µg/ml, respectively. Virginiamycin contains 75% of Factor M and 25% of Factor S.

[7] = Fusobacterium necrophorum, ATCC25286, 40 h
[8] = Fusobacterium necrophorum, ATCC27852, 40 h
[9] = Fasalocid : Virginiamycin, ratio 2:1
[10] = Fasalocid : Virginiamycin, ratio 3:1
[11] = Fusobacterium necrophorum, 40 h
[12] = strain ATCC 25286, 37°C, anaerobic atmosphere, 40 hours, * = geometric mean of more than one determination
[13] = strain ATCC 27852, 37°C, anaerobic atmosphere, 40 hours, * = geometric mean of more than one determination
[14] = Ferrensinmycin : Virginiamycin, ratio 1.3:1

Question: For CN(C)[C@@H]1C(O)=C(C(N)=O)C(=O)[C@@]2(O)C(O)=C3C(=O)c4c(O)ccc(Cl)c4[C@@](C)(O)[C@H]3C[C@@H]12 [Chlortetracycline], which MIC [1, 7] is on record?
Answer: 0.02 µg/mL (≈ 0.0418 µM)

Question: And the MIC [2, 8]?
Answer: 0.12 µg/mL (≈ 0.251 µM)

Question: How did the MIC [1, 7] turn out when CC[C@H]1OC(=O)[C@H](C)[C@@H](O[C@H]2C[C@@](C)(OC)[C@@H](O)[C@H](C)O2)[C@H](C)[C@@H](O[C@@H]2O[C@H](C)C[C@H](N(C)C)[C@H]2O)[C@](C)(O)C[C@@H](C)C(=O)[C@H](C)[C@@H](O)[C@]1(C)O [Erythromycin] was run?
Answer: 8 µg/mL (≈ 10.9 µM)

Question: For CC[C@@H](C(=O)[C@@H](C)[C@@H](O)[C@H](C)CCc1ccc(C)c(O)c1C(=O)O)[C@H]1O[C@](CC)([C@H]2CC[C@](O)(CC)[C@H](C)O2)C[C@@H]1C [Fasalocid], which “MIC Combination” value [3, 9] is on record?
Answer: 1 µg/mL

Question: And the “MIC Combination” value [3, 10]?
Answer: 3 µg/mL

Question: What about the “MIC Alone” value [3] of the same compound?
Answer: 7 µg/mL and 10 µg/mL

Question: With CC[C@@H](C(=O)[C@@H](C)[C@@H](O)[C@H](C)CCc1ccc(C)c(O)c1C(=O)O)[C@H]1O[C@](CC)([C@H]2CC[C@](O)(CC)[C@H](C)O2)C[C@@H]1C [Lasalocid] as the compound, how does the MIC [1, 7] read?
Answer: 9.1 µg/mL (≈ 15.4 µM)

Question: And the MIC [2, 8]?
Answer: 12 µg/mL (≈ 20.3 µM)

Question: And the MIC [4, 11]?
Answer: 8.5 µg/mL (≈ 14.4 µM)

Question: With CC[C@@]1([C@@H]2O[C@@H]([C@H]3O[C@@](O)(CO)[C@H](C)C[C@@H]3C)C[C@@H]2C)CC[C@H]([C@]2(C)CC[C@]3(C[C@H](O)[C@@H](C)[C@@H]([C@@H](C)[C@@H](OC)[C@H](C)C(=O)O)O3)O2)O1 [Monensin] as the compound, how does the MIC [1, 7] read?
Answer: 6.4 µg/mL (≈ 9.54 µM)

Question: What about the MIC [2, 8] of the same compound?
Answer: 3 µg/mL (≈ 4.47 µM)

Question: What about the MIC [4, 11] of the same compound?
Answer: 4.2 µg/mL (≈ 6.26 µM)

Question: And the MIC [3]?
Answer: 4 µg/mL

Question: With CN(C)[C@@H]1C(=O)C(C(N)=O)=C(O)[C@@]2(O)C(=O)C3=C(O)c4c(O)cccc4[C@@](C)(O)[C@H]3[C@H](O)[C@@H]12 [Oxytetracyline, Oxytetracycline] as the compound, how does the MIC [1, 7] read?
Answer: 0.03 µg/mL (≈ 0.0652 µM)

Question: And the MIC [2, 8]?
Answer: 0.25 µg/mL (≈ 0.543 µM)

Question: Which MIC [1, 7] does the source give for CC[C@@H](C(=O)[C@@H](C)[C@@H](O)[C@H](C)[C@@H]1O[C@@H]([C@@H](CC)C(=O)O)CC[C@@H]1C)[C@H]1O[C@]2(C=C[C@@H](O)[C@]3(CC[C@@](C)([C@H]4CC[C@](O)(CC)[C@H](C)O4)O3)O2)[C@H](C)C[C@@H]1C [Salinomycin] here?
Answer: 3.6 µg/mL (≈ 4.79 µM)

Question: And the MIC [2, 8]?
Answer: 4 µg/mL (≈ 5.33 µM)

Question: And the MIC [4, 11]?
Answer: 5.7 µg/mL (≈ 7.59 µM)

Question: And the “decrease in the MIC on combination” value [3]?
Answer: 250 fold

Question: And the MIC [3]?
Answer: 5 µg/mL

Question: CC[C@H]1OC(=O)C[C@@H](O)[C@H](C)[C@@H](O[C@@H]2O[C@H](C)[C@@H](O[C@H]3C[C@@](C)(O)[C@@H](O)[C@H](C)O3)[C@H](N(C)C)[C@H]2O)[C@@H](CC=O)C[C@@H](C)C(=O)/C=C/C(C)=C/[C@@H]1CO[C@@H]1O[C@H](C)[C@@H](O)[C@@H](OC)[C@H]1OC [Tylosin] was tested. Which MIC [1, 7] did it give?
Answer: 0.8 µg/mL (≈ 0.873 µM)

Question: And the MIC [2, 8]?
Answer: 1.4 µg/mL (≈ 1.53 µM)

Question: And the MIC [4, 11]?
Answer: 1 µg/mL (≈ 1.09 µM)

Question: Which results are given for Avoparcin?
Answer: MIC [1, 12]: 32.0 µg/mL; MIC [2, 13]: 64.0 µg/mL

Question: For Ferrensinmycin, which “MIC Combination” value [3, 14] is on record?
Answer: 0.6 µg/mL

Question: What about the “MIC Alone” value [3] of the same compound?
Answer: 0.5 µg/mL

Question: How did the MIC [1, 12] turn out when Flavomycin was run?
Answer: 0.25 µg/mL

Question: And the MIC [2, 13]?
Answer: 0.12 µg/mL

Question: What does the source list for Virginiamycin?
Answer: No. of Animals With Liver Abscess ([5]; Vm 9.1 grams/ton in ration): 16; No. of Animals Without Liver Abscess ([5]; Vm 9.1 grams/ton in ration): 181; No. of Animals With Liver Abscess ([5]; Vm 22.7 grams/ton in ration): 12; No. of Animals Without Liver Abscess ([5]; Vm 22.7 grams/ton in ration): 185; No. of Animals With Liver Abscess ([5]; Vm 45.5 grams/ton in ration): 6; No. of Animals Without Liver Abscess ([5]; Vm 45.5 grams/ton in ration): 191; effect on the incidence of liver abscess ([5]; all dose groups vs control, Chi-Square Goodness of Fit): obvious beneficial effect; MIC [1, 12]: 0.9* µg/ml; effectiveness compared with Tylosin ([2]; strain ATCC 27852, from MICs): twice as effective as Tylosin; MIC [2, 13]: 1.0* µg/ml; MIC ([4]; Colorado Strain, 37°C, anaerobic atmosphere, 40 hours, * = geometric mean of more than one determination): 1.0* µg/ml; MIC Combination [3, 9]: 1 µg/mL; MIC Combination [3, 10]: 0.9 µg/mL; MIC Combination [3, 14]: 0.5 µg/mL; MIC Combination ([3]; Monensin : Virginiamycin, ratio 0.7:1): 0.5 µg/mL; MIC Combination ([3]; Monensin : Virginiamycin, ratio 2:1): 0.01 µg/mL; MIC Combination ([3]; Monensin : Virginiamycin, ratio 3:1): 0.7 µg/mL; MIC Combination ([3]; Salinomycin : Virginiamycin, ratio 1:1): 0.7 µg/mL; MIC Combination ([3]; Salinomycin : Virginiamycin, ratio 1.3:1): 0.02 µg/mL; decrease in the MIC on combination ([3]; Salinomycin : Virginiamycin, ratio 1.3:1, vs alone): 50 fold; MIC Alone [3]: 0.7 µg/mL

Question: Which MIC [1, 12] does the source give for Virginiamycin factor M here?
Answer: 0.5 µg/mL

Question: And the MIC [2, 13]?
Answer: 0.25 µg/mL

Question: And the MIC [6]?
Answer: 0.35 µg/mL

Question: How did the MIC [2, 13] turn out when Zinc bacitracin was run?
Answer: 9.2 µg/mL

Reference: patent EP0356192A2, “Prevention & treatment of liver abscesses in animals” (SMITHKLINE BEECHAM CORPORATION, priority 1988, dated 1990)
